For data set [1], the system named is EO771 (Luc+OVA+) tumor organoids. In words: Toxicity on tumor organoids without T cells (WST-1 viability). To be noted: no T cells. Format: cell-based, mouse. The method, then: Tumor cell viability assay: For 2D tumor cell culture, tumor cells were seeded into 96 well plates at 2,000 cells per well and cultured for 72 h. For tumor organoids, tumor organoids with diameter between 70 and 150 μm were seeded at 50 organoids per well into 96-well microplates with ultra-low attachment surface (Corning). Cells or tumor organoids were treated with indicated compound at the final concentration of 1 μM. After 3-day culture, tumor organoids were dissociated into single cells using TrypLE Express (Corning) at 37° C. with a shaking velocity of 500 rpm on a thermomixer (Eppendorf) for 15 min. The 96-well microplates were added with 10 μl/well of Premix WST-1 reagent (TaKaRa) and incubated for 1 h. The microplates were read at absorbance of 450 nm on the Epoch microreader (BioTek). The toxicity of the epigenetic drugs was quantified using the premix WST-1 reagent according to the manufacturer's protocol.
Background: Tetrazolium assays rely on reduction of a dye to a coloured formazan, in cell work by metabolically active cells.

The test system of data set [2] is OVA-specific CD8+ T cells. The experiment in a line: T cell effector function in EO771 organoid co-culture. Format: cell-based, mouse. As to conditions: for IFNγ, GZMB and TNFα expression levels in the co-cultured CD8+ T cells: co-cultured with drug-treated tumor organoids; for secreted IFNγ and TNFα (ELISA): vs T cells co-cultured with untreated organoids. The method, then: T cell effector function analysis: We measured cytokine and cytolytic granule production (IFNγ, GZMB and TNFα) of CD8+ T cells from mouse tumor samples and tumor organoid-T cell co-culture. Briefly, CD8+ T cells were placed into the 24-well plate at 1×10^6 cells/well, stimulated with 1 μM ionomycin and 50 ng ml-1 phorbol 12-myristate 13-acetate (PMA) (Sigma-Aldrich) for 4 h, in the presence of 5 μg ml-1 Brefeldin A (BFA), with the purpose to amplify the expression of intracellular cytokines61. The cells were stained with APC/Cy7-conjugated anti-CD8a (Biolegend) for 15 min and then fixed by 4% PFA. After washing, cells were stained with PerCP/Cy7-conjugated anti-GZMB, APC-conjugated anti-IFNγ and PE-conjugated anti-TNFα (Biolegend) for 15 min. In flow cytometric analyses, T cells stained with isotype control antibodies were used as negative controls for gating the cytokine or granule-producing cells. For T cells from tumor organoid-T cell co-culture, tumor organoids were first digested into single cells with TrypLE Express at 37° C. before APC/Cy7-conjugated anti-CD8a staining. In the IFNγ and TNFα secretion assay (Biolegend), T cells were stimulated with ionomycin and PMA without the presence of BFA. The media were collected for ELISA assay.
For orientation: An ELISA detects its analyte on a solid surface through an enzyme-linked reagent.

For data set [3], the system named is PDOs from breast cancer patients. The experiment in a line: Patient-derived organoids co-cultured with autologous CD8+ T cells. Format: cell-based, human. To be noted: for T cell cytotoxicity: PDO2 and PDO7. The method, then: Breast tumor organoid culture: Single cells isolated from EO771-derived tumors in tumor-bearing C57BL/6 mice were suspended into cold mouse breast cancer culture medium containing 10% Matrigel (Corning) with a concentration of 2×10^5 cells ml^−1. The cells (2 ml) were seeded into each well of pre-warmed 6-well microplate with ultra-low attachment surface (Corning) and cultured at 37° C. with 5% CO2. The same volume of fresh culture medium was added every other day. After 7-day culture, tumor organoids were collected using cell strainers with pore size of 70 and 150 μm. For human tumor organoid culture, 2 ml of NY-ESO-1+ MDA-MB-468 cells with a concentration of 2×10^5 cells ml-1 were seeded into each well of the prewarmed 6-well microplate with ultra-low attachment surface. The cells were cultured for two days to generate tumor spheroids. The resulting spheroids were mixed with cancer associated fibroblasts (CAFs) with a ratio of 2:1 (tumor cells versus CAFs) and cultured in the human breast cancer organoid culture medium3 for 5 days. Finally, the MDA-MB-468 tumor organoids with diameter of 70˜150 μm were used for co-culture with NY-ESO-1-specific human CD8+ T cells (ASTARTE Biologics). Patient-derived organoids (PDOs) were cultured following the same procedures as mouse EO771 tumor organoids using human breast cancer organoid culture medium.
Cytotoxicity of CD8+ T cells in the co-culture with tumor organoids We generated mouse EO771 (Luc+OVA+) cell line that presents OVA257-264 antigen (from chicken ovalbumin) and human MDA-MB-468 (NY-ESO-1+) cell line that presents NY-ESO-1 antigen for use in the T cell-mediated cytotoxicity assay. OVA-specific CD8+ T cells were isolated from the spleen of OT-I mouse that contains transgenic inserts of Tcra-V2 and Tcrb-V5 genes. The transgenic T cell receptor can recognize the ovalbumin peptide SIINFEKL (OVA257-264; SEQ ID NO: 55). Anti-NY-ESO-1 human CD8^+ T cells (CELLERO™) were used to recognize the NY-ESO-1+ MDA-MB-468 cells. Autologous human CD8+ T cells were isolated from patient tumor tissues and amplified in the DMEM/F12 medium supplemented with 10% FBS, 2 mM Ultraglutamine I, 1% penicillin/streptomycin and 10 ng mL-1 of human IL2 for 7 days. The CD8+ T cells were stimulated by the T-activator CD3/CD28 Dynabeads (Gibco, 11452D for mouse and 11131D for human) for 48 h prior to use for cytotoxicity assay. Mouse and human tumor organoids with diameter between 70 and 150 μm were collected and mixed with corresponding CD8+ T cells in DMEM/F12 medium supplemented with 10% FBS, 2 mM Ultraglutamine I, 1% penicillin/streptomycin and 10 ng mL-1 IL2 (Biolegend, mouse: 575402; human: 589102) at a ratio of organoids versus T cells at 1:200 in the microplates with ultra-low attachment surface. The cells were co-cultured for 24 h and subject to further analyses, such as optical and fluorescence imaging, luciferase assay or flow cytometry.
There is an unmet clinical need to predict responsiveness to new cancer immunotherapy. Both syngeneic mouse models and humanized patient-derived xenograft (PDX) models are time-consuming and not cost-efficient. Here, we wanted to apply the standardized tumor organoid model in this study to predict the therapeutic responses to BML-210, CUDC-101 and GSK-LSD1. In this setting, autologous CD8+ T cells were isolated from patient tumor tissues and amplified for a week. Patient-derived organoids (PDOs) were generated from 10 patients with breast cancer (Table 2). The PDOs from each patient were characterized and compared with their originating tumors using Hematoxylin and eosin (H&E) staining and immunofluorescence imaging analysis. EpCAM and SMA were used as biomarkers to identify tumor epithelial cells and cancer-associated fibroblast cells, respectively, which are the main components of a breast tumor tissue. […] We were able to isolate reasonable numbers (>1×10^5) of autologous T cells from 8 out of 10 breast tumor tissues. […]

Setting [4] is: PDO1, PDO3, PDO4, PDO5 and PDO8, 48 h pretreatment.

SMILES strings stand for the structures.

`Nc1ccccc1NC(=O)CCCCCCC(=O)Nc1ccccc1` [BML-210]: the “effect on the tumor organoids in the absence of T cells” value (“effect on the tumor organoids” for short) in data set [1] is listed as “no notable effect”. Further, in data set [2], the “IFNγ, GZMB and TNFα expression levels in the co-cultured CD8+ T cells” value (from here on “IFNγ, GZMB and TNFα expression levels”) is listed as “remarkably up-regulated”; the “secreted IFNγ and TNFα (ELISA)” value is on record as “much higher levels”. In addition, in data set [3] (setting [4]), the T cell-mediated cytotoxicity result is recorded as “significantly higher T cell-mediated cytotoxicity”. In addition, the T cell cytotoxicity result in data set [3] is “only moderate increases (statistically not significant)”. In data set [3] (PDO6), the T cell-mediated cytotoxicity result was “higher T cell-mediated cytotoxicity”.
For the molecule `C#Cc1cccc(Nc2ncnc3cc(OC)c(OCCCCCCC(=O)NO)cc23)c1` [CUDC-101], the “effect on the tumor organoids” value in data set [1] was “no notable effect”. Moreover, in data set [2], the “IFNγ, GZMB and TNFα expression levels” value is on record as “remarkably up-regulated”; the “secreted IFNγ and TNFα (ELISA)” value is “much higher levels”. Further, in data set [3] (setting [4]), the T cell-mediated cytotoxicity entry is “significantly higher T cell-mediated cytotoxicity”. In addition, the T cell cytotoxicity result in data set [3] is recorded as “only moderate increases (statistically not significant)”. Besides, in data set [3] (PDO6), the T cell-mediated cytotoxicity result is reported as “modest effect”.
Consider `c1ccc([C@@H]2C[C@H]2NC2CCNCC2)cc1` [GSK-LSD1], for which the “effect on the tumor organoids” value in data set [1] was “no notable effect”. The “IFNγ, GZMB and TNFα expression levels” value in data set [2] is reported as “remarkably up-regulated”. For the same molecule, the “secreted IFNγ and TNFα (ELISA)” value in data set [2] is given as “much higher levels”. Further, the T cell-mediated cytotoxicity entry in data set [3] (setting [4]) was “significantly higher T cell-mediated cytotoxicity”; in data set [3] (PDO6), “higher T cell-mediated cytotoxicity”. For the same molecule, in data set [3], the T cell cytotoxicity result is on record as “only moderate increases (statistically not significant)”.

The values are drawn from patent US20240299321A1, “METHODS TO SENSITIZE CANCER CELLS AND STANDARDIZED SCREENING ASSAY FOR IMMUNOTHERAPY” (THE TRUSTEES OF INDIANA UNIVERSITY, priority 2020, published 2024).
